Experimental data taken from publication PMC10622847 (2023).

Key:
[1] = test system: WT Eco riboswitch 36-mer, biotinylated (RNA, riboswitch) AUUGGGUUCCCUCACCCCAAUGGUUAAUCAAAAAGG; assay: SPR kinetics (1:1 fit); settings: Na+ 100 mM, Mg2+ 3 mM; 10 mM Na-HEPES pH 7.5, 25 °C; apparent
[2] = test system: Eco 33-mer (linker ΔGGU) (RNA, riboswitch) AUUGGGUUCCCUCACCCCAAUUAAUCAAAAAGG; assay: ITC; settings: 10 μM RNA in cell, 100 μM preQ1 in syringe; buffer as in cited work
[3] = test system: Eco 30-mer (crystal construct) (RNA, riboswitch) UUGGGUUCCCUCACCCCAAUCAUAAAAAGG; assay: ITC; settings: 10 μM RNA in cell, 100 μM preQ1 in syringe; buffer as in cited work
[4] = test system: G6DAP/C16U (RNA, riboswitch, 2,6-diaminopurine at 6) AUUGGGUUCCCUCACUCCAAUGGUUAAUCAAAAAGG; assay: SPR steady state (one-site fit); settings: Na+ 100 mM, Mg2+ 3 mM; 10 mM Na-HEPES pH 7.5, 25 °C; preQ1 1.25 to 200 μM
[5] = test system: Eco 30-mer (crystal construct) (RNA, riboswitch) UUGGGUUCCCUCACCCCAAUCAUAAAAAGG; assay: X-ray crystallography (2.30 Å, Mn2+ SAD); settings: Mn2+ 5 mM, K+ 100 mM, Mg2+ 2 mM (well solution); Na-cacodylate pH 6.0, spermine, MPD, 20 °C
[6] = test system: C15U (RNA, riboswitch) AUUGGGUUCCCUCAUCCCAAUGGUUAAUCAAAAAGG; assay: SPR steady state (one-site fit); settings: Na+ 100 mM, Mg2+ 3 mM; 10 mM Na-HEPES pH 7.5, 25 °C; preQ1 9.7 to 10,000 μM
[7] = test system: Eco 34-mer (linker ΔGG) (RNA, riboswitch) AUUGGGUUCCCUCACCCCAAUUUAAUCAAAAAGG; assay: ITC; settings: 10 μM RNA in cell, 100 μM preQ1 in syringe; buffer as in cited work
[8] = test system: WT Eco riboswitch 36-mer (RNA, riboswitch) AUUGGGUUCCCUCACCCCAAUGGUUAAUCAAAAAGG; assay: ITC; settings: 10 μM RNA in cell, 100 μM preQ1 in syringe; buffer as in cited work
[9] = test system: Eco 35-mer (linker ΔG) (RNA, riboswitch) AUUGGGUUCCCUCACCCCAAUGUUAAUCAAAAAGG; assay: ITC; settings: 10 μM RNA in cell, 100 μM preQ1 in syringe; buffer as in cited work
[10] = test system: U7C (RNA, riboswitch) AUUGGGCUCCCUCACCCCAAUGGUUAAUCAAAAAGG; assay: SPR steady state (one-site fit); settings: Na+ 100 mM, Mg2+ 3 mM; 10 mM Na-HEPES pH 7.5, 25 °C; preQ1 9.7 to 10,000 μM; text gives 4.2 ± 0.3 mM

Row | KD [1] | KD [2] [nM] | KD [3] [nM] | KD [4] | binding [5] | KD [6] | KD [7] [nM] | KD [8] [nM] | KD [9] [nM] | KD [10] | Structure (SMILES)
1 | 15,970 ± 2260 nM |  |  |  |  |  |  |  |  |  | N#Cc1c[nH]c2nc(N)[nH]c(=O)c12
2 | 120 ± 6 nM | 30.2 ± 1.3 | 51.9 ± 1.8 | 77,390 ± 5880 nM | yes | 7,682,000 ± 206,000 nM | 14.0 ± 1.6 | 57.9 ± 1.5 | 33.4 ± 1.9 | 4,220,000 ± 33,000 nM | NCc1c[nH]c2nc(N)[nH]c(=O)c12
